Measurements from US5294603A, “Pharmaceutical compositions containing didemnins” (The Board of Trustees of The University of Illinois, priority 1992, dated 1994).
In brackets after ≈: the same amount, converted by molar mass. Where two headings read alike, the source gives them in different places. Numbered stars: 1 amine (or outer) side, 2 acyl side, 3 side chain; on linkers, the order of the positions; unused ones are H or OH. Bridge positions count the residues as written; N and C are the ends. Square brackets hold non-standard residues; d marks the D form. Peptide text beside a SMILES is read from it. * marks the point of attachment. X7 = CC[C@H](C)[C@@H](N[*:1])[C@@H](O)CC(=O)O[C@H](C(=NO)[C@H](C)C(=O)[*:2])C(C)C; X1 = CC[C@H](C)[C@@H](N[*:1])[C@@H](O)CC(=O)O[C@H](C(=O)[C@H](C)C(=O)[*:2])C(C)C; X3 = CC[C@H](C)[C@H](N[*:1])[C@@H](O)CC(=O)O[C@H](C(=O)[C@H](C)C(=O)[*:2])C(C)C; NMeY = CN[C@@H](Cc1ccc(O)cc1)C(=O)O; aThr = C[C@H](O)[C@H](N)C(=O)O; dNMeL = CN[C@H](CC(C)C)C(=O)O; Aze = O=C(O)[C@@H]1CCN1; Pyruvoyl = CC(=O)C(=O)*; Propionyl = CCC(=O)*

Key:
[1] = test system: DNA synthesis in Nb2 node lymphoma cells; experiment: Inhibition of ongoing DNA synthesis in prolactin-stimulated Nb2 cells; type: cell-based, rat; details: Nb2 cells stimulated with prolactin for 24 h
Experimental: Also inhibitions of protein and DNA synthesis of several compounds were measured using Nb2 node lymphoma cells which were stimulated by a treatment of cells with prolactin. (ibid.)
^a Nb2 cells were stimulated with prolactin for 24 h, then exposed to
^b 50% Inhibitory concentration, calculated with linear regression

[2] = test system: Visna virus (VIV); type: cell-based; design: key to % Protection / VIV Protection: I, indeterminate
[3] = test system: L1210
[4] = test system: L1210 murine leukemia cells; details: Table 9
[5] = test system: Nb2 cells, rat T-cell node lymphoma; experiment: Competitive binding with [3H]didemnin B to Nb2 cells; details: 3 h at 37° C.
Experimental: The immunosuppressive assay was performed by measuring competitive binding of tested compounds with [^3 H]didemnin B to Nb2 cells, rat T-cell node lymphoma. See, Russell, D. H., et al., J. Immunology, 1987, 138, 276-284.
^a Competing didemnins incubated with approximately 25 ng of [^3

[6] = test system: L1210; experiment: L1210 cytotoxicity, inhibition at fixed doses (Table 10); type: cell-based, murine; details: tested 4/22/1990
[7] = test system: CV-1 monkey kidney cells
[8] = test system: cells of the VIV assay (not named)
[9] = test system: L1210 cells
[10] = test system: BHK = Baby hamster kidney cells

| SMILES | VIV Protection [2] | Cytotoxicity percent L1210 inhibition ([3]; dose 5 ng/mL) [%] | Cytotoxicity percent L1210 inhibition ([3]; dose 12.5 ng/mL) [%] | Cytotoxicity percent L1210 inhibition ([3]; dose 25 ng/mL) [%] | Cytotoxicity L1210 IC50 [4] [ng/mL] | Inhibition of [3H]didemnin B binding (%) ([5]; 0.001 μg/mL) | Inhibition of [3H]didemnin B binding (%) ([5]; 0.01 μg/mL) | Inhibition of [3H]didemnin B binding (%) ([5]; 0.1 μg/mL) | Inhibition of [3H]didemnin B binding (%) ([5]; 1 μg/mL) | also measured |
| --- | --- | --- | --- | --- | --- | --- | --- | --- | --- | --- |
| CC[C@H](C)[C@H]1NC(=O)[C@@H](NC(=O)[C@@H](CC(C)C)NC)[C@@H](C)OC(=O)[C@H](Cc2ccc(OC)cc2)N(C)C(=O)[C@@H]2CCCN2C(=O)[C@H](CC(C)C)NC(=O)[C@@H](C)C(=O)[C@H](C(C)C)OC(=O)C[C@@H]1O [Didemnin A (1), Didemnin A, reference compound] (H-[dNMeL]T[X1]LP[NMeY](Me); ester 2-C) | < 0 | 0 | 19 | 25 | 30 | 3 | 8 | 20 | 35 | IC50 DNA [1]: 2000 ng/mL (≈ 2.12 µM); Inhibition (%) ([6]; dose 25 ng/mL): 80%; Inhibition (%) ([6]; dose 250 ng/mL): 100% |
| CC[C@H](C)[C@H]1NC(=O)[C@@H](NC(=O)[C@@H](CC(C)C)NC)[C@@H](C)OC(=O)[C@H](Cc2ccc(OC)cc2)N(C)C(=O)[C@@H]2CCCN2C(=O)[C@H](CC(C)C)NC(=O)[C@@H](C)C(=NO)[C@H](C(C)C)OC(=O)C[C@@H]1O [[HydroxyiminoHip^2]-Didemnin A (65), [HydroxyiminoHip^2]didemnin A] (H-[dNMeL]T[X7]LP[NMeY](Me); ester 2-C) |  |  |  |  | 20 |  |  |  |  | CV-1 [7]: 0 |
| CC[C@H](C)[C@H]1NC(=O)[C@@H](NC(=O)[C@@H](CC(C)C)N(C)C(=O)[C@@H]2CCN2C(=O)C(C)=O)[C@@H](C)OC(=O)[C@H](Cc2ccc(OC)cc2)N(C)C(=O)[C@@H]2CCCN2C(=O)[C@H](CC(C)C)NC(=O)[C@@H](C)C(=O)[C@H](C(C)C)OC(=O)C[C@@H]1O [Pyruv-Azt-DA, Pyruv-Azt Didemnin A] (Pyruvoyl-[Aze][dNMeL]T[X1]LP[NMeY](Me); ester 3-C) |  |  |  |  |  |  |  |  |  | % Cytotoxicity [8]: 77; % Protection [2]: I; IC50 [9]: 0.6 ng/mL (≈ 0.000547 µM) |
| CC[C@H](C)[C@H]1NC(=O)[C@@H](NC(=O)[C@@H](CC(C)C)N(C)C(=O)[C@@H](N)CC(C)C)[C@@H](C)OC(=O)[C@H](Cc2ccc(OC)cc2)N(C)C(=O)[C@@H]2CCCN2C(=O)[C@H](CC(C)C)NC(=O)[C@@H](C)C(=O)[C@H](C(C)C)OC(=O)C[C@@H]1O [N-(L-Leu)Didemnin A (99), N-(L-Leu)didemnin A] (H-L[dNMeL]T[X1]LP[NMeY](Me); ester 3-C) |  |  |  |  | 4 |  |  |  |  | BHK [10]: 0, PT |
| CCC(=O)N(C)[C@H](CC(C)C)C(=O)N[C@@H]1C(=O)N[C@H]([C@@H](C)CC)[C@@H](O)CC(=O)O[C@@H](C(C)C)C(=O)[C@H](C)C(=O)N[C@@H](CC(C)C)C(=O)N2CCC[C@H]2C(=O)N(C)[C@@H](Cc2ccc(OC)cc2)C(=O)O[C@@H]1C [(N-Propionyl)Didemnin A (98), N-propionyl-didemnin A] (Propionyl-[dNMeL]T[X1]LP[NMeY](Me); ester 2-C) | I | 93 | 95 | 95 | 0.3 | 3 | 2 | 40 | 72 | VIV Toxicity [8]: 92; BHK [10]: 0, PT; cytotoxicity (result in words) ([3]; Table 1 footnote and text): retained the cytotoxicity of didemnin B |
| CC[C@H](C)[C@@H]1NC(=O)[C@@H](NC(=O)[C@@H](CC(C)C)N(C)C(C)=O)[C@H](C)OC(=O)[C@H](Cc2ccc(OC)cc2)N(C)C(=O)[C@@H]2CCCN2C(=O)[C@H](CC(C)C)NC(=O)[C@@H](C)C(=O)[C@H](C(C)C)OC(=O)C[C@@H]1O [N-Acetyldidemnin A (54), N-Acetyl didemnin A] (Ac-[dNMeL][aThr][X3]LP[NMeY](Me); ester 2-C) | I | 89 | 93 | 94 | 0.3 | 2 | 12 | 72 | 80 | VIV Toxicity [8]: 94; IC50 DNA [1]: 70 ng/mL (≈ 0.071 µM) |
| Cc1cn([C@H]2C[C@H](N=[N+]=[N-])[C@@H](CO)O2)c(=O)[nH]c1=O [AZT, reference compound] |  |  |  |  |  |  |  |  |  | % Cytotoxicity ([8]; 1 µM): 5; % Cytotoxicity ([8]; 3 µM): 7; % Cytotoxicity ([8]; 10 µM): 11; % Cytotoxicity ([8]; 30 µM): 14 |
